Laboratory results: patent publication US11897886B2, “Pyrazolo[4,3-d]pyrimidines as antitumor agents” (Duquesne University of the Holy Spirit, priority 2018, dated 2024)
Like-named read-outs stand apart in the source and are kept apart here.

What was measured:
[1] = system: NCI/ADR-RES; assay: Compound activity in a P-gp overexpressing cell line NCI/ADR-RES; format: cell-based; conditions: for IC50: P-gp overexpressing cell line
[2] = system: MCF-7 WT; assay: MCF-7 WT cell activity; format: cell-based; conditions: Homo sapiens, MCF7
[3] = system: MCF-7-TUBB3 β3-tubulin; assay: MCF-7-TUBB3 (β3-tubulin) cell activity; format: cell-based
[4] = system: MCF-7/TAX Pgp; assay: MCF-7/TAX (Pgp) cell activity; format: cell-based; conditions: for EC50: Homo sapiens, MCF7
[5] = system: OVCAR-8; assay: Compound activity in OVCAR-8 cell line; format: cell-based; conditions: for IC50: OVCAR-8, read-out: OVCAR-8 IC50 (nM) ± SD
[6] = molecular target: tubulin (Bos taurus, UniProt P81947+Q6B856); assay: Inhibition of [3H]colchicine binding to tubulin
[7] = system: MIA PaCa-2; assay: MIA PaCa-2 cell line activity; format: cell-based; conditions: Table 2, read-out: MIA PaCa-2 (nM ± SD)
[8] = Homo sapiens, NCI/ADR-RES, Table 1, read-out: NCl/ADR-RES IC50 (nM) ± SD
[9] = Homo sapiens, NCI/ADR-RES, Table 2, read-out: NCI/ADR-RES IC50 (nM) ± SD

Sequence of tubulin (Q6B856 whole entry): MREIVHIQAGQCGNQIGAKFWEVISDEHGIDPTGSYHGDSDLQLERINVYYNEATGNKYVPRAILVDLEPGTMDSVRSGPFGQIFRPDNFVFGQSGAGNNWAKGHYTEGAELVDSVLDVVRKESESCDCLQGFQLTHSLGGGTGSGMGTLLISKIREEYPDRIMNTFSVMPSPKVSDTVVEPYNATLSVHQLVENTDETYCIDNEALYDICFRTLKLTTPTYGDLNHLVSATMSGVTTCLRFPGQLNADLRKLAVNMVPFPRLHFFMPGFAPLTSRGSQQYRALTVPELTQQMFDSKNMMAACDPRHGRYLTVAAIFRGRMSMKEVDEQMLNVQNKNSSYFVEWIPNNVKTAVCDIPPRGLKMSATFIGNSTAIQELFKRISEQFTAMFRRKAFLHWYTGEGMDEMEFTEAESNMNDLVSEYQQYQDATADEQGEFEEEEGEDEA
Sequence of tubulin (P81947 whole entry): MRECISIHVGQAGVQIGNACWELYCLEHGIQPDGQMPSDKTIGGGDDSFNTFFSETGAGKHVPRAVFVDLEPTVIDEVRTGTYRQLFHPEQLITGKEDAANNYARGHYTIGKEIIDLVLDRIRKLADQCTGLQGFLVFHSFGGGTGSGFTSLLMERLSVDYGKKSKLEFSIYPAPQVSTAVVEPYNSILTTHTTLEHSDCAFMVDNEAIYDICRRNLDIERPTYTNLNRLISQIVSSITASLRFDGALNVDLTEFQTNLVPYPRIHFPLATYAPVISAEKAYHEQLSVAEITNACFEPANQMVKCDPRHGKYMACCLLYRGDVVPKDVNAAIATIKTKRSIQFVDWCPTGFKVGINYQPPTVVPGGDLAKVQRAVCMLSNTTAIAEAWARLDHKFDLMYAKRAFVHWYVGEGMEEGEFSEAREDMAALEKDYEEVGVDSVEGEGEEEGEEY

SMILES	IC50 [1, 8] [nM]	IC50 [1, 9] [nM]	EC50 [2] [nM]	EC50 [3] [nM]	RESISTANCE RATIO β3-tubulin/WT ([3]; MCF-7-TUBB3 vs MCF-7 WT)	EC50 [4] [nM]	RESISTANCE RATIO Pgp/WT ([4]; MCF-7/TAX vs MCF-7 WT)	IC50 ([5]; Homo sapiens, Table 1) [nM]	other results
CCOc1ccc(N(C)c2nc(Cl)nc3cnn(C)c23)cc1 [Compound 8, 5-chloro-N-(4-ethoxyphenyl)-N,1-dimethyl-1H-pyrazolo[4,3-d]pyrimidin-7-amine]	4 ± 1	4 ± 1	7.7 ± 0.7	9.7 ± 1	1.3	31.3 ± 3.5	4.0	2 ± 1	fold improvement of OVCAR-8 cell line activity ([5]; over compound 4): around 4 fold
COc1ccc(Nc2nc(Cl)nc3cnn(C)c23)cc1 [Compound 11, 5-chloro-N-(4-methoxyphenyl)-1-methyl-1H-pyrazolo[4,3-d]pyrimidin-7-amine]	> 5000							> 5000	activity in NCI/ADR-RES cell line [1]: not active; activity in OVCAR-8 cell line [5]: not active; colchicine inhibition [6]: did not show colchicine inhibition
CC(C)Oc1ccc(N(C)c2nc(Cl)nc3cnn(C)c23)cc1 [Compound 9, 5-chloro-N-(4-isopropoxyphenyl)-N,1-dimethyl-1H-pyrazolo[4,3-d]pyrimidin-7-amine]	44 ± 8	44 ± 8						49 ± 10	
CN(c1ccc(OC(F)(F)F)cc1)c1nc(Cl)nc2cnn(C)c12 [Compound 10, 5-chloro-N,1-dimethyl-N-(4-(trifluoromethoxy)phenyl)-1H-pyrazolo[4,3-d]pyrimidin-7-amine]	730 ± 100	730 ± 100						880 ± 40	
COc1cccc2cc(N(C)c3nc(Cl)nc4cnn(C)c34)ccc12 [Compound 7, 5-chloro-N-(5-methoxynaphthalen-2-yl)-N,1-dimethyl-1H-pyrazolo[4,3-d]pyrimidin-7-amine]	11 ± 0.7	11 ± 0.7	35.2 ± 4.7	16.8 ± 1.5	0.5	43 ± 7.2	1.2	14 ± 3	
CSc1ccc(N(C)c2nc(Cl)nc3cnn(C)c23)cc1 [Compound 5, 5-chloro-N,1-dimethyl-N-(4-(methylthio)phenyl)-1H-pyrazolo[4,3-d]pyrimidin-7-amine]	17 ± 3	17 ± 3						31 ± 2	IC50 ([7]; Homo sapiens): 20.9 ± 0.651 nM
COc1ccc(/C=C\c2cc(OC)c(OC)c(OC)c2)cc1O [CS-A4, Combretastatin A-4, reference compound]									IC50 ([1]; Table 1, read-out: NCl/ADR-RES IC50 (nM) ± SD): 2.3 ± 0.4 nM; IC50 ([1]; Table 2, read-out: NCI/ADR-RES IC50 (nM) ± SD): 2.3 ± 0.4 nM; IC50 ([5]; Table 1): 3.5 ± 0.7 nM; IC50 ([5]; Table 2): 3.5 ± 0.7 nM
COc1ccc2c(c1)CCCN2c1nc(Cl)nc2cnn(C)c12 [Compound 6, 1-(5-chloro-1-methyl-1H-pyrazolo[4,3-d]pyrimidin-7-yl)-6-methoxy-1,2,3,4-tetrahydroquinoline]	8 ± 0.7	8 ± 0.7						17 ± 2	IC50 ([7]; Homo sapiens): 48 ± 2.77 nM
Nc1ccn([C@@H]2O[C@H](CO)[C@@H](O)C2(F)F)c(=O)n1 [GEM, reference compound]									IC50 [7]: 297 nM
COc1ccc(N(C)c2nc(Cl)nc3cnn(C)c23)cc1 [Compound 4, 5-chloro-N-(4-methoxyphenyl)-N,1-dimethyl-1H-pyrazolo[4,3-d]pyrimidin-7-amine]	5	5	2 ± 0.3	3.3 ± 0.4	1.1	15.1 ± 2	3.8	9 ± 0.7	IC50 ([7]; Homo sapiens): 22.7 ± 1.13 nM
CC(=O)O[C@H]1C(=O)[C@@]2(C)[C@H]([C@H](OC(=O)c3ccccc3)[C@]3(O)C[C@H](OC(=O)[C@H](O)[C@@H](NC(=O)c4ccccc4)c4ccccc4)C(C)=C1C3(C)C)[C@]1(OC(C)=O)CO[C@@H]1C[C@@H]2O [Paclitaxel, reference compound]	> 5000	> 5000	194	2070		3220		7 ± 2	[…] β3-tubulin/WT ([3]; MCF-7-TUBB3 vs MCF-7 WT): 10.6; […] Pgp/WT ([4]; MCF-7/TAX vs MCF-7 WT): 16.6
Nc1nc2[nH]cc(CCc3ccc(C(=O)N[C@@H](CCC(=O)O)C(=O)O)cc3)c2c(=O)[nH]1 [PMX, reference compound]									IC50 [7]: 16.1 ± 1.4 nM
COc1ccc(N(C)c2nc(Cl)nc3cnn(C)c23)cc1F [Compound 6d7, 5-chloro-N-(3-fluoro-4-methoxyphenyl)-N,1-dimethyl-1H-pyrazolo[4,3-d]pyrimidin-7-amine]		7 ± 3	1.7 ± 0.2	2.6 ± 0.4	1.6	8.1 ± 0.2	4.8		IC50 ([5]; Homo sapiens, Table 2): 9 ± 1 nM
